Measurements as given in patent US20080051418A1, “Arylalkanoic Acid Derivative” (priority 2004, published 2008).
Where a name gives a salt, the structure may show the parent alone.

Columns and labels:
PPARγ-RXRα heterodimer = biological target: T1, PPARγ-RXRα heterodimer (Homo sapiens, UniProt P37231); test: PPARγ-RXRα heterodimer ligand activity (luciferase reporter); assay type: cell-based; conditions: PPARγ:RXRα:4ERPP/CHO-K1 cells, 18-24 hr, concentration showing 50% of the maximum induction rate
T1 construct: expressed in transfected cells; host or cells: CHO-K1
T1 sequence (P37231 1-505): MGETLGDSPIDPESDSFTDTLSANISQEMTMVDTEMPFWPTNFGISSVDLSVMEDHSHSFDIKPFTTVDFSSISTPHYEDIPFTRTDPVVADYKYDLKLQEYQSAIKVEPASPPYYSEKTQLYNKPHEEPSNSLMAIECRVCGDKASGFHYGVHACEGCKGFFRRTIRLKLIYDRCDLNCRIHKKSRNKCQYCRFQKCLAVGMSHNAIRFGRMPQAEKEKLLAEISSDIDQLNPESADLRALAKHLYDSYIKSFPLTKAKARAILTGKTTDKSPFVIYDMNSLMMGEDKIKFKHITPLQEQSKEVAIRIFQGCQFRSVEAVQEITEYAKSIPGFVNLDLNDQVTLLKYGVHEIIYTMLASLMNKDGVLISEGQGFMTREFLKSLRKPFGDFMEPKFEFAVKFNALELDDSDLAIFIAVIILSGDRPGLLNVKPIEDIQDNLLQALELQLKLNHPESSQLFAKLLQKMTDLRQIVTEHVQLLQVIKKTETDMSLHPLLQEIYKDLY
T1 sequence (P19793 1-462 partner): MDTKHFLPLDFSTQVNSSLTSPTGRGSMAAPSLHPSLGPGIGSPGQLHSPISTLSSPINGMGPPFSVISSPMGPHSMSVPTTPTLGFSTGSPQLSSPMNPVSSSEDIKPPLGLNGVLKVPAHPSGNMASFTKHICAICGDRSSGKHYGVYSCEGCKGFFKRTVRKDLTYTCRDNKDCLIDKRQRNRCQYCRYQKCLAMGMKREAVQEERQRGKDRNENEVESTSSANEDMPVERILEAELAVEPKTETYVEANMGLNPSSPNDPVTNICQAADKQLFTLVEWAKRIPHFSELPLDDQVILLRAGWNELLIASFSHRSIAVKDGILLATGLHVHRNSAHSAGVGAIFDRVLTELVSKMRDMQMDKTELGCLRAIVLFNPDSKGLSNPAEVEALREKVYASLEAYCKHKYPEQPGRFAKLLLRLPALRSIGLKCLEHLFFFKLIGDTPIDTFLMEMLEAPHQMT
Experimental: The PPARγ:RXRα:4ERPP/CHO-K1 cells described in WO03/099793 were cultured in a Ham F12 medium [manufactured by Life Technologies, Inc., US] containing 10% calf fetal serum [manufactured by Life Technologies, Inc., US], sown in a 96-well white plate [manufactured by Corning Coster Corporation, US] at 2×10^4 cells/well, and incubated overnight in a carbon dioxide gas incubator at 37° C.
Then, the medium was removed from the 96 well white plate, 80 μl of Ham F12 medium containing 0.1% fatty acid-free bovine serum albumin (BSA) and a test compound (20 μl) were added, and the cells were incubated for 18-24 hr in a carbon dioxide gas incubator at 37° C. The medium was removed, 40 μl of PicaGene 7.5 (manufactured by Wako Pure Chemical Industries, Ltd.) diluted 2-fold with HBSS (HANKS' BALANCED SALT SOLUTION) [manufactured by BIO WHITTAKER, US] was added. After stirring, the luciferase activity was determined using the 1420 ARVO Multilabel Counter [manufactured by PerkinElmer, US].
The induction rate was calculated from the luciferase activity of each test compound based on the luciferase activity of the test compound non-administration group as 1. The test compound concentration and the induction rate were analyzed by PRISM [manufactured by GraphPad Software, Inc., US] to calculate EC50 value (compound concentration showing 50% of the maximum value of induction rate) of the test compound.

| Structure (SMILES) | EC50 (PPARγ-RXRα heterodimer) | melting point |
| --- | --- | --- |
| CCCOc1cc(CCCOc2c(CC(=O)O)cccc2OC)n(C(C)c2ccc(Cl)cc2Cl)n1 (centres unmarked) [Example 19, [2-(3-{1-[1-(2,4-dichlorophenyl)ethyl]-3-propoxy-1H-pyrazol-5-yl}propoxy)-3-methoxyphenyl]acetic acid] | 3.2 nM | – |
| CCCOc1cc(CCCOc2c(CC(=O)O)cccc2OC)n(Cc2ccc(C(F)(F)F)cc2)n1 [Example 59, [3-methoxy-2-(3-{3-propoxy-1-[4-(trifluoromethyl)benzyl]-1H-pyrazol-5-yl}propoxy)phenyl]acetic acid] | 23 nM | 122 to 123 °C |
| CCCOc1cc(CCCOc2c(CC(=O)O)cccc2OC)n(Cc2ccc(F)cc2F)n1 [Example 82, (2-{3-[1-(2,4-difluorobenzyl)-3-propoxy-1H-pyrazol-5-yl]propoxy}-3-methoxyphenyl)acetic acid] | 26 nM | 77 to 80 °C |
| CCCOc1cc(CCCOc2c(CC(=O)O)cccc2OC)n(Cc2ccccc2OC)n1 [Example 83, (2-{3-[1-(2-methoxybenzyl)-3-propoxy-1H-pyrazol-5-yl]propoxy}-3-methoxyphenyl)acetic acid] | 18 nM | 79 to 82 °C |
| CC(C)Oc1cc(COc2cc(CCC(=O)O)n(-c3ccccc3)n2)cc(COc2ccc(Cl)cc2Cl)c1 [Example 195, 3-[3-({3-[(2,4-dichlorophenoxy)methyl]-5-isopropoxybenzyl}oxy)-1-phenyl-1H-pyrazol-5-yl]propanoic acid] | – | 108 to 110 °C |
| CC(C)Oc1cc(CCCOc2cc(CCC(=O)O)n(C)n2)cc(COc2ccc(Cl)cc2Cl)c1 [Example 197, 3-[3-(3-{3-[(2,4-dichlorophenoxy)methyl]-5-isopropoxyphenyl}propoxy)-1-methyl-1H-pyrazol-5-yl]propanoic acid] | – | 116 to 120 °C |
| O=C(O)CCc1cc(OCc2cc(COc3ccc(Cl)cc3Cl)cc(OCc3ccccc3)c2)nn1-c1ccccc1 [Example 198, 3-[3-({3-(benzyloxy)-5-[(2,4-dichlorophenoxy)methyl]benzyl}oxy)-1-phenyl-1H-pyrazol-5-yl]propanoic acid] | – | 126 to 130 °C |
| CCOCc1cc(COc2cc(CCC(=O)O)n(-c3ccccc3)n2)cc(Oc2ncc(C(F)(F)F)cc2Cl)c1 [Example 199, 3-(3-{[3-{[3-chloro-5-(trifluoromethyl)pyridin-2-yl]oxy}-5-(ethoxymethyl)benzyl]oxy}-1-phenyl-1H-pyrazol-5-yl)propanoic acid] | – | 124 to 128 °C |
| CC(C)Oc1cc(COc2ccc(C(F)(F)F)cc2)cc(COc2cc(CCC(=O)O)n(-c3ccccc3)n2)c1 [Example 202, 3-{3-[(3-isopropoxy-5-{[4-(trifluoromethyl)phenoxy]methyl}benzyl)oxy]-1-phenyl-1H-pyrazol-5-yl}propanoic acid] | – | 55 to 58 °C |
| CC(C)Oc1cc(COc2cc(CCC(=O)O)n(-c3ccccc3)n2)cc(COc2ncc(C(F)(F)F)cc2Cl)c1 [Example 203, 3-(3-{[3-({[3-chloro-5-(trifluoromethyl)pyridin-2-yl]oxy}methyl)-5-isopropoxybenzyl]oxy}-1-phenyl-1H-pyrazol-5-yl)propanoic acid] | – | 140 to 142 °C |
| CCOc1cc(COc2cc(CCC(=O)O)n(-c3ccccc3)n2)cc(COc2ccc(Cl)cc2Cl)c1 [Example 204, 3-[3-({3-[(2,4-dichlorophenoxy)methyl]-5-ethoxybenzyl}oxy)-1-phenyl-1H-pyrazol-5-yl]propanoic acid] | – | 151.5 to 152 °C |

The remaining lines, values ahead:

| EC50 (PPARγ-RXRα heterodimer) | melting point | Structure (SMILES) |
| --- | --- | --- |
| 30 nM | 67 to 68 °C | CC(C)c1cc(CCCOc2nn(C)cc2CC(=O)O)n(Cc2ccc(Cl)cc2Cl)n1 [Example 33, (3-{3-[1-(2,4-dichlorobenzyl)-3-isopropyl-1H-pyrazol-5-yl]propoxy}-1-methyl-1H-pyrazol-4-yl)acetic acid] |
| 1.7 nM | – | CC(C)c1cc(CCCOc2nn(Cc3ccccc3)cc2CC(=O)O)n(Cc2ccc(Cl)cc2Cl)n1 [Example 34, (1-benzyl-3-{3-[1-(2,4-dichlorobenzyl)-3-isopropyl-1H-pyrazol-5-yl]propoxy}-1H-pyrazol-4-yl)acetic acid 1/2 calcium salt] |
| 2.7 nM | 101 to 102 °C | COc1cccc(CC(=O)O)c1OCCCc1cc(C(C)C)nn1Cc1ccc(Cl)cc1Cl [Example 35, (2-{3-[1-(2,4-dichlorobenzyl)-3-isopropyl-1H-pyrazol-5-yl]propoxy}-3-methoxyphenyl)acetic acid] |
| 20 nM | 75 to 77 °C | Cc1nc(OCCCc2cc(OC(C)C)nn2Cc2ccc(Cl)cc2Cl)c(CC(=O)O)s1 [Example 36, (4-{3-[1-(2,4-dichlorobenzyl)-3-isopropoxy-1H-pyrazol-5-yl]propoxy}-2-methyl-1,3-thiazol-5-yl)acetic acid] |
| 6.4 nM | 111 to 112 °C | CC(C)c1cc(CCCOc2ncccc2CC(=O)O)n(Cc2ccc(Cl)cc2Cl)n1 [Example 37, (2-{3-[1-(2,4-dichlorobenzyl)-3-isopropyl-1H-pyrazol-5-yl]propoxy}pyridin-3-yl)acetic acid] |
| 39 nM | – | CC(C)Oc1cc(CCCOc2nn(Cc3ccccc3)cc2CC(=O)O)n(Cc2ccc(Cl)cc2OC(C)C)n1 [Example 71, (1-benzyl-3-{3-[1-(4-chloro-2-isopropoxybenzyl)-3-isopropoxy-1H-pyrazol-5-yl]propoxy}-1H-pyrazol-4-yl)acetic acid] |
| 3 nM | 81 to 82 °C | Cc1cc(Cl)ccc1Cn1nc(OC(C)C)cc1CCCOc1nn(Cc2ccccc2)cc1CC(=O)O [Example 73, (1-benzyl-3-{3-[1-(4-chloro-2-methylbenzyl)-3-isopropoxy-1H-pyrazol-5-yl]propoxy}-1H-pyrazol-4-yl)acetic acid] |
| 1.9 nM | – | CC(C)c1cc(CCCOc2nn(Cc3ccccc3)cc2CC(=O)O)n(Cc2ccc(C(F)(F)F)cc2Cl)n1 [Example 75, [1-benzyl-3-(3-{1-[2-chloro-4-(trifluoromethyl)benzyl]-3-isopropyl-1H-pyrazol-5-yl}propoxy)-1H-pyrazol-4-yl]acetic acid] |
| 5.4 nM | 105 to 107 °C | Cc1cc(C(F)(F)F)ccc1Cn1nc(OC(C)C)cc1CCCOc1ncccc1CC(=O)O [Example 80, [2-(3-{3-isopropoxy-1-[2-methyl-4-(trifluoromethyl)benzyl]-1H-pyrazol-5-yl}propoxy)pyridin-3-yl]acetic acid] |
| 2.6 nM | 120 to 122 °C | CC(C)Oc1cc(CCCOc2ccc3ccccc3c2CC(=O)O)n(Cc2ccc(Cl)cc2Cl)n1 [Example 85, (2-{3-[1-(2,4-dichlorobenzyl)-3-isopropoxy-1H-pyrazol-5-yl]propoxy}-1-naphthyl)acetic acid] |
| 5.1 nM | 121 to 123 °C | CC(C)Oc1cc(CCCOc2nn(Cc3ccccc3)cc2CC(=O)O)n(Cc2ccc(F)cc2Cl)n1 [Example 92, (1-benzyl-3-{3-[1-(2-chloro-4-fluorobenzyl)-3-isopropoxy-1H-pyrazol-5-yl]propoxy}-1H-pyrazol-4-yl)acetic acid] |
| 2.6 nM | – | CC(C)Oc1ccc(CCCOc2nn(C)cc2CCC(=O)O)c(Oc2ncc(C(F)(F)F)cc2Cl)c1 [Example 145, 3-{3-[3-(2-{[3-chloro-5-(trifluoromethyl)pyridin-2-yl]oxy}-4-isopropoxyphenyl)propoxy]-1-methyl-1H-pyrazol-4-yl}propanoic acid] |
| – | 101 to 102 °C | COCOc1cc(CCCOc2ncccc2CC(=O)O)n(Cc2ccc(Cl)cc2Cl)n1 [Example 207, (2-{3-[1-(2,4-dichlorobenzyl)-3-(methoxymethoxy)-1H-pyrazol-5-yl]propoxy}pyridin-3-yl)acetic acid] |
